Measurements from patent US11208407B2, “Substituted phenyl compounds as indoleamine 2,3-dioxygenase (IDO) inhibitors” (Merck Sharp & Dohme Corp., priority 2017, dated 2021).
pIC50: −log10 of the molar value.

Tests used:
IDO1 [1] = target: T1, IDO1 (Homo sapiens, UniProt P14902); test: IDO1 Human Whole Blood Assay; assay type: cell-based; parameters: Human whole blood was drawn in sodium heparin coated tubes from healthy internal donors; from tissue; host or cells: Human whole blood from healthy donors, stimulated with LPS and IFNγ; settings: LPS and IFNγ 100 ng/mL, 18 h, kynurenine by LC/MS/MS
T1 sequence (P14902 whole entry): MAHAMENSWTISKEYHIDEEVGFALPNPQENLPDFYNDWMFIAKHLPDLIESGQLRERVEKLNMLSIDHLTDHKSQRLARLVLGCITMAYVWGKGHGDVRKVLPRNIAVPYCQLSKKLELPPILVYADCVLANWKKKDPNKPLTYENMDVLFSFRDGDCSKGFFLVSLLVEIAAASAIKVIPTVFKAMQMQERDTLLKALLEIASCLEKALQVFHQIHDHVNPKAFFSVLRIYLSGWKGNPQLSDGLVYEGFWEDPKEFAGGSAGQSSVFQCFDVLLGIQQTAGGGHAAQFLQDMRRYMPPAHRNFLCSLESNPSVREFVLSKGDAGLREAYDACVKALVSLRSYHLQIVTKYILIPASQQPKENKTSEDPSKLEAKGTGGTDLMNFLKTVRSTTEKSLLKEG
Method: IDO1 Human Whole Blood Assay
Compounds to be tested were serially diluted in ten 3-fold steps in DMSO starting from 10 mM. 3 µL of compound dilutions or DMSO alone were then dispensed from the dilution plate into a polypropylene 96-well assay plate containing 97 µL of RPMI medium using an Echo 555 acoustic liquid handler (Labcyte). LPS (lipopolysaccharide) and IFNγ was prepared in RPMI to a 10× of final conc. (1000 ng/mL), final concentration is 100 ng/mL.
Human whole blood was drawn in sodium heparin coated tubes from healthy internal donors. 240 µL of blood was transferred to each of the wells of a v-bottom 96 well plate. 30 µL of compound was transferred from intermediate dilution plate, and incubated for 15 min. 30 μL from stimulants was then transferred to blood and mixed thoroughly. Plate was covered with breathable membrane and incubated at 37° C. for overnight (18 h).
On day 2, isotope labeled standard solutions of kunurenine and tryptophan was made in water at 10× concentration and 30 µL was added to the blood at 3 µM final concentration. The assay plates were centrifuged at 300×G for 10 min with no brake to separate plasma from red blood cells. 60 µL of plasma samples was removed without disturbing red blood cells. Plasma was diluted with RPMI medium in 1:1 ratio and proteins were precipitated out with two volumes of Acetonitrile. The plates were centrifuged at 4000×G for 60 min. 20 µL of supernatant was carefully transferred to a 384 well plate containing 40 µL of 0.1% formic acid in water and analyzed by LC/MS/MS.
LC/MS/MS analyses were performed using Thermo Fisher's LX4-TSQ Quantum Ultra system. This system consists of four Agilent binary high-performance liquid chromatography (HPLC) pumps and a TSQ Quantum Ultra triple quadrupole MS/MS instrument. For each sample, 5 µL were injected onto an Atlantis T3 column (2.1 mm×150 mm, 3 µm particle size) from Waters. The mobile phase gradient pumped at 0.8 mL/min was used to elute the analytes from the column at 25° C. The elution started at 0% B increasing linearly to 25% B at 6.5 min, holding at 25% for 1 min, re-equilibrating to 10 min. Mobile phase A consisted of 0.1% formic acid in water. Mobile phase B consisted of 0.1% of formic acid in acetonitrile. Data was acquired in positive mode using a HESI interface. The operational parameters for the TSQ Quantum Ultra instrument were a spray voltage of 4000 V, capillary temperature of 380° C., vaporizer temperature 400° C., shealth gas 60 arbitrary units, Aux gas 20 arbitrary units, tube lens 85 and collision gas 1.2 mTorr. SRM (selected-reaction monitoring) chromatograms of kynurenine (Q1: 209.2>Q3:94.0) and internal standard (Q1: 215.3>Q3:98.2) were collected for 90 sec. The peak area was integrated by Xcalibur Quan software. The ratios between the kynurenine generated in the reaction and 2D6-Kynurenine spiked-in internal standard were used to generate percentage inhibition and IC50 values. Compounds were titrated and IC50's were calculated by 4 parameter sigmoidal curve fitting formula.

IDO1 [2] = target: T1, IDO1; test: IDO1 Cellular Assay in HeLa Cells Stimulated with IFNγ; assay type: cell-based; settings: IFNγ 100 ng/mL, 300 uM L-tryptophan, about 48 hours, read-out: IDO HeLa Cell Assay, IC50
Method: Biological Assays IDO1 Cellular Assay in HeLa Cells Stimulated with IFNγ
HeLa cells were cultured in complete HeLa culture medium (90% EMEM, 10% heat-inactivated fetal bovine serum) and expanded to about 1×10^9 cells. The cells were then collected and frozen down at 1×10^7 cells/vial in 1 mL frozen medium (90% complete HeLa culture medium, 10% DMSO).
Compounds to be tested were serially diluted in ten 3-fold steps in DMSO starting from 10 mM DMSO stocks in Echo low volume plate(s). Compound dilutions or DMSO alone were then dispensed from the dilution plate(s) into Greiner black 384-well assay plate(s) (catalog #781086, 50 nL/well) using an Echo 550 acoustic liquid handler (Labcyte).
Frozen HeLa cells were thawed and transferred into HeLa assay medium (99% complete HeLa culture medium, 1% Pen/Strep) with 20 mL medium/vial of cells. The cells were spun down at 250 g in a table top centrifuge for 5 min and suspended in same volume of HeLa assay medium. The cells were then counted and adjusted to a density of 2×10^5 cells/mL in HeLa assay medium. Sterile L-tryptophan were added to the cells with final concentration of 300 uM L-tryptophan. A small aliquot (2 mL/plate) of HeLa cells were set aside and were not treated with IFNγ, to serve as the Max-E control.
HeLa cells with and without IFNγ were dispensed to the respective wells of 384-well assay plates containing the compounds. The plates were incubated for about 48 hours at a 37° C., 5% CO2 incubator. Afterwards, 12 μL of 0.5 M methyl isonipecotate in dimethyl sulfoxide were added into each well and the plates were sealed and incubated at 37° C. without CO2 overnight. The plates were centrifuged for 1 min at 200×g. The resulting fluorescence was measured in a Spectramax plate reader (Molecular Devices) with a 400 nm excitation filter and a 510 nm emission filter.
The fluorescence intensity of each well was corrected for the background observed in wells with non-IFNγ-treated cells and was expressed as a fraction of the intensity observed in wells of IFNγ-treated cells and DMSO only. Potencies were calculated by linear least squares fit to the four parameter logistic IC50 equation.

Row | SMILES | pIC50 (IDO1 [1]) | pIC50 (IDO1 [2])
1 | Cc1cc(OC(F)F)nc(C)c1-c1ccc(C2(c3nc4cc(Cl)ccc4[nH]3)CCC2)cc1 [Example 48, 5-chloro-2-(1-{4-[6-(difluoromethoxy)-2,4-dimethylpyridin-3-yl]phenyl}cyclobutyl)-1H-benzimidazole] | 6.88 | 8.61
2 | CC(C)(O)c1cc(C(F)(F)F)ncc1-c1ccc(C2(c3nc4cc(Cl)ccc4[nH]3)CCC2)cc1 [Example 49, 2-[5-{4-[1-(5-chloro-1H-benzimidazol-2-yl)cyclobutyl]phenyl}-2-(trifluoromethyl)pyridin-4-yl]propan-2-ol] | 7.14 | 8.77
3 | OCc1cc(C(F)(F)F)ncc1-c1ccc(C2(c3nc4ncc(Cl)cc4[nH]3)COC2)cc1 [Example 50, (5-(4-(3-(6-chloro-1H-imidazo[4,5-b]pyridin-2-yl)oxetan-3-yl)phenyl)-2-(trifluoromethyl)pyridin-4-yl)methanol] | 5.39 | 8.52
4 | OCc1cc(C(F)(F)F)ncc1-c1ccc(C2(c3nc4ccc(Cl)cc4[nH]3)COC2)cc1 [Example 51, [5-{4-[3-(6-chloro-1H-benzimidazol-2-yl)oxetan-3-yl]phenyl}-2-(trifluoromethyl)pyridin-4-yl]methanol] | 6.55 | 8.76
5 | OCc1cc(C(F)(F)F)ncc1-c1ccc(C2(c3nc4ccc(Cl)cc4[nH]3)CCC2)cc1 [Example 52, [5-{4-[1-(6-chloro-1H-benzimidazol-2-yl)cyclobutyl]phenyl}-2-(trifluoromethyl)pyridin-4-yl]methanol] | 7.04 | 8.96
